This note sets out measurements from PubChem BioAssay (NCI).

Among the test systems are RPMI-8226 leukemia; SK-MEL-5 melanoma; NCI-H226 lung; UO-31 renal; HS 578T breast; BT-549 breast; UACC-257 melanoma; HCT-15 colon; PC-3 prostate; K-562 leukemia.
Holding throughout (experiment): NCI anticancer screen, dose series, 48 h

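96-well plates; 48 h exposure; 5 concentrations. Endpoints by linear interpolation between flanking doses. Not reached: highest tested concentration assigned. Definition used: TGI = concentration required for complete inhibition of growth.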

`O=C(Cn1c(=O)oc2ccccc21)N(c1ccccc1)c1ccccc1`: the TGI in the test with RPMI-8226 leukemia, with SK-MEL-5 melanoma, in the test on NCI-H226 lung, in the test on UO-31 renal, with HS 578T breast and in the test on BT-549 breast was over 100 µM throughout. The TGI in the test on UACC-257 melanoma, with HCT-15 colon, in the test on PC-3 prostate and in the test on K-562 leukemia was over 100 µM each time.

As for `NC1=Nc2ncccc2C(=O)NN1`, the TGI with RPMI-8226 leukemia, with SK-MEL-5 melanoma, in the test with NCI-H226 lung, in the test on UO-31 renal, with HS 578T breast and with BT-549 breast was over 10 µM in each case. Further, the TGI in the test with UACC-257 melanoma, with HCT-15 colon, in the test on PC-3 prostate and in the test on K-562 leukemia was over 10 µM in each case.

In the case of `Cc1n[nH]c(=O)c2c3c([nH]c12)-c1ccccc1C3`, the TGI in the test on RPMI-8226 leukemia, in the test on SK-MEL-5 melanoma, in the test with NCI-H226 lung, in the test on UO-31 renal, with HS 578T breast and in the test on BT-549 breast was over 100 µM throughout. The TGI in the test with UACC-257 melanoma, in the test with HCT-15 colon, with PC-3 prostate and in the test with K-562 leukemia was over 100 µM each time.

`Cc1[nH]c2c(C)c3c([nH]c4ccc(Cl)cc43)c(C)c2c(=O)c1C`: the TGI was 24.9 µM with RPMI-8226 leukemia; 42.2 µM in the test on SK-MEL-5 melanoma; 24.2 µM in the test on NCI-H226 lung; 38.9 µM with UO-31 renal; over 100 µM in the test with HS 578T breast; over 100 µM in the test on BT-549 breast. The TGI is over 100 µM in the test on UACC-257 melanoma, 5.72 µM in the test with HCT-15 colon, 22.4 µM in the test on PC-3 prostate and over 100 µM with K-562 leukemia.

As for `Clc1ccc(Cc2nc3cc4ccccc4cc3[nH]2)cc1Cl`, the TGI was over 100 µM with RPMI-8226 leukemia; 20.4 µM in the test on SK-MEL-5 melanoma; 78 µM in the test with NCI-H226 lung; 28.5 µM in the test on UO-31 renal; 64.5 µM with HS 578T breast; 37.2 µM with BT-549 breast. Also, the TGI is 37.7 µM in the test with UACC-257 melanoma, over 100 µM in the test on HCT-15 colon, 43.4 µM in the test on PC-3 prostate and 83 µM with K-562 leukemia.

Turning to `COc1ccc(/C=N/n2c(-c3ccccc3)n[nH]c2=O)c(OC)c1`, the TGI was over 100 µM with RPMI-8226 leukemia; over 100 µM in the test on SK-MEL-5 melanoma; over 100 µM with NCI-H226 lung; over 70 µM in the test on UO-31 renal; 80 µM in the test on HS 578T breast; over 44.6 µM in the test on BT-549 breast. Moreover, the TGI in the test on UACC-257 melanoma, with HCT-15 colon, in the test on PC-3 prostate and in the test on K-562 leukemia was over 100 µM throughout.
